Source: patent US20260365682A1, “MODULATORS OF TNF-ALPHA ACTIVITY” (Forward Therapeutics, Inc., priority 2022, published 2026)

target: T1, TNF-α (Homo sapiens, UniProt P01375); experiment: TNF-α Induced HEK Blue Cellular Assay (secreted alkaline phosphatase expression, QUANTI-Blue); assay type: cell-based; details: HEK Blue TNFα reporter cells; TNF-α 100 μg/ml; 24 hrs at 37° C.; inhibition of secreted alkaline phosphatase; read-out: IC50 value
T1 construct: purchased R&D 210-TA-020/CF
In short: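 Compound was serially diluted from […] to 0.5 nM final, then incubated with 10,000 HEK Blue TNFα reporter cells per well and […] TNF-α for 24 h at 37° C. SEAP output was read by QUANTI-Blue absorbance at 620 nm. Inhibition was background-corrected against DMSO controls with and without stimulation, and IC50 was fitted with a 4-parameter logistic equation.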

T1 sequence (P01375 77-233 limits assumed): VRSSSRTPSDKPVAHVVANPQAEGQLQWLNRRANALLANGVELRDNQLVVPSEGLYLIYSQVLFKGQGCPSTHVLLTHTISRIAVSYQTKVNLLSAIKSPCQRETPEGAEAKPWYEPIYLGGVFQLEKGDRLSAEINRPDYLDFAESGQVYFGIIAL

| Structure (SMILES) | IC50 [nM] |
| --- | --- |
| [2H]C([2H])([2H])N1C(=O)c2cccc(OC(F)F)c2[C@H]2C[C@@H]1c1nc3ccc(C#C[C@H](C)CO)cc3n12 [Example 129, (7R,14R)-1-(difluoromethoxy)-11-((S)-4-hydroxy-3-methylbut-1-yn-1-yl)-6-(methyl-d3)-6,7-dihydro-7,14-methanobenzo[f]benzo[4,5]imidazo[1,2-a][1,4]diazocin-5(14H)-one] | < 100 |
| [2H]C([2H])([2H])N1C(=O)c2cccc(OC(F)F)c2[C@H]2C[C@@H]1c1nc3ccc(C#CC4(CO)CC4)cc3n12 [Example 130, (7R,14R)-1-(difluoromethoxy)-11-((1-(hydroxymethyl)cyclopropyl)ethynyl)-6-(methyl-d3)-6,7-dihydro-7,14-methanobenzo[f]benzo[4,5]imidazo[1,2-a][1,4]diazocin-5(14H)-one] | 100 to 1000 |
| [2H]C([2H])([2H])N1C(=O)c2cccc(OC(F)F)c2[C@H]2C[C@@H]1c1nc3ccc(C#CCOC(F)F)cc3n12 [Example 131, (7R,14R)-1-(difluoromethoxy)-11-(3-(difluoromethoxy)prop-1-yn-1-yl)-6-(methyl-d3)-6,7-dihydro-7,14-methanobenzo[f]benzo[4,5]imidazo[1,2-a][1,4]diazocin-5(14H)-one] | < 100 |
| [2H]C([2H])([2H])N1C(=O)c2cccc(OC(F)F)c2[C@H]2C[C@@H]1c1nc3ccc(C#CCCC(F)F)cc3n12 [Example 132, (7R,14R)-1-(difluoromethoxy)-11-(5,5-difluoropent-1-yn-1-yl)-6-(methyl-d3)-6,7-dihydro-7,14-methanobenzo[f]benzo[4,5]imidazo[1,2-a][1,4]diazocin-5(14H)-one] | < 100 |
| [2H]C([2H])([2H])N1C(=O)c2cccc(OC(F)F)c2[C@H]2C[C@@H]1c1nc3ccc(C#CCCCN4CCN(C)CC4)cc3n12 [Example 133, (7R,14R)-1-(difluoromethoxy)-6-(methyl-d3)-11-(5-(4-methylpiperazin-1-yl)pent-1-yn-1-yl)-6,7-dihydro-7,14-methanobenzo[f]benzo[4,5]imidazo[1,2-a][1,4]diazocin-5(14H)-one] | 100 to 1000 |
| [2H]C([2H])([2H])N1C(=O)c2cccc(OC(F)F)c2[C@H]2C[C@@H]1c1nc3ccc(C#CCCN4CCN(C)CC4)cc3n12 [Example 134, (7R,14R)-1-(difluoromethoxy)-6-(methyl-d3)-11-(4-(4-methylpiperazin-1-yl)but-1-yn-1-yl)-6,7-dihydro-7,14-methanobenzo[f]benzo[4,5]imidazo[1,2-a][1,4]diazocin-5(14H)-one] | < 100 |
| [2H]C([2H])([2H])N1C(=O)c2cccc(OC(F)F)c2[C@H]2C[C@@H]1c1nc3ccc(C#CCCN4CCCC4)cc3n12 [Example 136, (7R,14R)-1-(difluoromethoxy)-6-(methyl-d3)-11-(4-(pyrrolidin-1-yl)but-1-yn-1-yl)-6,7-dihydro-7,14-methanobenzo[f]benzo[4,5]imidazo[1,2-a][1,4]diazocin-5(14H)-one] | < 100 |
| [2H]C([2H])([2H])N1C(=O)c2cccc(OC(F)F)c2[C@H]2C[C@@H]1c1nc3ccc(C#CCC(=O)OC)cc3n12 [Example 138, methyl 4-((7R,14R)-1-(difluoromethoxy)-6-(methyl-d3)-5-oxo-5,6,7,14-tetrahydro-7,14-methanobenzo[f]benzo[4,5]imidazo[1,2-a][1,4]diazocin-11-yl)but-3-ynoate] | 10000 to 30000 |
| [2H]C([2H])([2H])N1C(=O)c2cccc(OC(F)F)c2[C@H]2C[C@@H]1c1nc3ccc(C#CC4CC(C#N)C4)cc3n12 (stereo partly drawn) [Example 141, 3-(((7R,14R)-1-(difluoromethoxy)-6-(methyl-d3)-5-oxo-5,6,7,14-tetrahydro-7,14-methanobenzo[f]benzo[4,5]imidazo[1,2-a][1,4]diazocin-11-yl)ethynyl)cyclobutane-1-carbonitrile] | < 100 |

Continued, values first:

| IC50 [nM] | Structure (SMILES) |
| --- | --- |
| < 100 | [2H]C([2H])([2H])N1C(=O)c2cccc(OC(F)F)c2[C@H]2C[C@@H]1c1nc3ccc(C#C[C@H](C)COC)cc3n12 [Example 142, (7R,14R)-1-(difluoromethoxy)-11-((S)-4-methoxy-3-methylbut-1-yn-1-yl)-6-(methyl-d3)-6,7-dihydro-7,14-methanobenzo[f]benzo[4,5]imidazo[1,2-a][1,4]diazocin-5(14H)-one] |
| < 100 | [2H]C([2H])([2H])N1C(=O)c2cccc(OC(F)F)c2[C@H]2C[C@@H]1c1nc3ccc(C#CCCN4CC(C)(O)C4)cc3n12 [Example 143, (7R,14R)-1-(difluoromethoxy)-11-(4-(3-hydroxy-3-methylazetidin-1-yl)but-1-yn-1-yl)-6-(methyl-d3)-6,7-dihydro-7,14-methanobenzo[f]benzo[4,5]imidazo[1,2-a][1,4]diazocin-5(14H)-one] |
| 100 to 1000 | [2H]C([2H])([2H])N1C(=O)c2cccc(OC(F)F)c2[C@H]2C[C@@H]1c1nc3ccc(C#CCO)cc3n12 [Example 144, (7R,14R)-1-(difluoromethoxy)-11-(3-hydroxyprop-1-yn-1-yl)-6-(methyl-d3)-6,7-dihydro-7,14-methanobenzo[f]benzo[4,5]imidazo[1,2-a][1,4]diazocin-5(14H)-one] |
| < 100 | [2H]C([2H])([2H])N1C(=O)c2cccc(OC(F)F)c2[C@H]2C[C@@H]1c1nc3c(F)cc(C#CC4(C)COC4)cc3n12 [Example 145, (7R,14R)-1-(difluoromethoxy)-9-fluoro-6-(methyl-d3)-11-((3-methyloxetan-3-yl)ethynyl)-6,7-dihydro-7,14-methanobenzo[f]benzo[4,5]imidazo[1,2-a][1,4]diazocin-5(14H)-one] |
| 100 to 1000 | [2H]C([2H])([2H])N1C(=O)c2cccc(OC(F)F)c2[C@H]2C[C@@H]1c1nc3ccc(C#CC4(C)COC4)c(F)c3n12 [Example 146, (7R,14R)-1-(difluoromethoxy)-12-fluoro-6-(methyl-d3)-11-((3-methyloxetan-3-yl)ethynyl)-6,7-dihydro-7,14-methanobenzo[f]benzo[4,5]imidazo[1,2-a][1,4]diazocin-5(14H)-one] |
| < 100 | [2H]C([2H])([2H])N1C(=O)c2cccc(OC(F)F)c2[C@H]2C[C@@H]1c1nc3ccc(C#C[C@@H](C)COC)cc3n12 [Example 147, (7R,14R)-1-(difluoromethoxy)-11-((R)-4-methoxy-3-methylbut-1-yn-1-yl)-6-(methyl-d3)-6,7-dihydro-7,14-methanobenzo[f]benzo[4,5]imidazo[1,2-a][1,4]diazocin-5(14H)-one] |
| < 100 | [2H]C([2H])([2H])N1C(=O)c2cccc(OC(F)F)c2[C@H]2C[C@@H]1c1nc3ccc(C#CC4CC(F)(F)C4)cc3n12 [Example 150, (7R,14R)-11-((3,3-difluorocyclobutyl)ethynyl)-1-(difluoromethoxy)-6-(methyl-d3)-6,7-dihydro-7,14-methanobenzo[f]benzo[4,5]imidazo[1,2-a][1,4]diazocin-5(14H)-one] |
| 100 to 1000 | [2H]C([2H])([2H])N1C(=O)c2cccc(OC(F)F)c2[C@H]2C[C@@H]1c1nc3ccc(C#CCCNC)cc3n12 [Example 151, (7R,14R)-1-(difluoromethoxy)-6-(methyl-d3)-11-(4-(methylamino)but-1-yn-1-yl)-6,7-dihydro-7,14-methanobenzo[f]benzo[4,5]imidazo[1,2-a][1,4]diazocin-5(14H)-one] |
| 100 to 1000 | [2H]C([2H])([2H])N1C(=O)c2cccc(OC(F)F)c2[C@H]2C[C@@H]1c1nc3ccc(C#CCCNCC)cc3n12 [Example 152, (7R,14R)-1-(difluoromethoxy)-11-(4-(ethylamino)but-1-yn-1-yl)-6-(methyl-d3)-6,7-dihydro-7,14-methanobenzo[f]benzo[4,5]imidazo[1,2-a][1,4]diazocin-5(14H)-one] |
| 100 to 1000 | [2H]C([2H])([2H])N1C(=O)c2cccc(OC(F)F)c2[C@H]2C[C@@H]1c1nc3ccc(C#CCCCNC)cc3n12 [Example 153, (7R,14R)-1-(difluoromethoxy)-6-(methyl-d3)-11-(5-(methylamino)pent-1-yn-1-yl)-6,7-dihydro-7,14-methanobenzo[f]benzo[4,5]imidazo[1,2-a][1,4]diazocin-5(14H)-one] |
| < 100 | [2H]C([2H])([2H])N1C(=O)c2cccc(OC(F)F)c2[C@H]2C[C@@H]1c1nc3ccc(C#CCCN4CC(C)(C#N)C4)cc3n12 [Example 154, 1-(4-((7R,14R)-1-(difluoromethoxy)-6-(methyl-d3)-5-oxo-5,6,7,14-tetrahydro-7,14-methanobenzo[f]benzo[4,5]imidazo[1,2-a][1,4]diazocin-11-yl)but-3-yn-1-yl)-3-methylazetidine-3-carbonitrile] |
| < 100 | [2H]C([2H])([2H])N1C(=O)c2cccc(OC(F)F)c2[C@H]2C[C@@H]1c1nc3ccc(C#CC4(C)CN(C)C4)cc3n12 [Example 155, (7R,14R)-1-(difluoromethoxy)-11-((1,3-dimethylazetidin-3-yl)ethynyl)-6-(methyl-d3)-6,7-dihydro-7,14-methanobenzo[f]benzo[4,5]imidazo[1,2-a][1,4]diazocin-5(14H)-one] |
| 100 to 1000 | [2H]C([2H])([2H])N1C(=O)c2cccc(OC(F)F)c2[C@H]2C[C@@H]1c1nc3ccc(C#CC4(C)CN(C(=O)C(C)(C)O)C4)cc3n12 [Example 156, (7R,14R)-1-(difluoromethoxy)-11-((1-(2-hydroxy-2-methylpropanoyl)-3-methylazetidin-3-yl)ethynyl)-6-(methyl-d3)-6,7-dihydro-7,14-methanobenzo[f]benzo[4,5]imidazo[1,2-a][1,4]diazocin-5(14H)-one] |

same assay, conditions: IC50 value, HEK Blue TNFα reporter cells; TNF-α 100 μg/ml; 24 hrs at 37° C.; inhibition of secreted alkaline phosphatase

| IC50 [nM] | Structure (SMILES) |
| --- | --- |
| < 100 | [2H]C([2H])([2H])N1C(=O)c2cccc(OC(F)F)c2[C@H]2C[C@@H]1c1nc3ccc(C#CCCN4CCC4)cc3n12 [Example 135, (7R,14R)-11-(4-(azetidin-1-yl)but-1-yn-1-yl)-1-(difluoromethoxy)-6-(methyl-d3)-6,7-dihydro-7,14-methanobenzo[f]benzo[4,5]imidazo[1,2-a][1,4]diazocin-5(14H)-one] |
